Experimental data from article PMC8468449 (2021).

Legend:
[1] = tested on: 35-mer adenosine aptamer (DNA, aptamer) AAAAAAAAAACCTGGGGGAGTATTGCGGAGGAAGG; assay: CNT FET aptasensor, Hill-Langmuir fit; settings: no added salt stated; 2 mM Tris-HCl, pH 7.4; Hill n 0.2 ± 0.03; immobilised aptamer
[2] = tested on: 27-mer adenosine aptamer (DNA, aptamer) ACCTGGGGGAGTATTGCGGAGGAAGGT; assay: CNT FET aptasensor, Hill-Langmuir fit; settings: no added salt stated; 2 mM Tris-HCl, pH 7.4; Hill n 0.6 ± 0.08; immobilised aptamer

Kd [1]: (1.2 ± 1.08) × 10^−9 M
Kd [2]: (1.6 ± 1.4) × 10^−7 M
SMILES: Nc1ncnc2c1ncn2[C@@H]1O[C@H](CO)[C@@H](O)[C@H]1O
